Laboratory results from patent US8975417B2, “Pyrazolopyrrolidine derivatives and their use in the treatment of disease” (Novartis AG, priority 2013, dated 2015).

Key:
[1] = biological target: His-Brd2(60-472) (Homo sapiens (Human), UniProt P25440); assay: TR-FRET in-vitro binding assay for BRD2; conditions: biochemical
In short: (§1)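 Assay buffer HEPES pH 7.5/NaCl/Tween20/BSA; protein solution 45 nM, peptide solution 60 nM acetyl-H4 (AcK5,8,12,16). Incubated 30 °C for 35 min; Eu-anti-His6 and SA-APC detection, TR-FRET read.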

[2] = biological target: His-Brd4(44-477) (Homo sapiens (Human), UniProt O60885); assay: TR-FRET in-vitro binding assay for BRD4; conditions: biochemical
In short: as §1

[3] = biological target: His-CREBBP (1081-1197) bromodomain (Homo sapiens (Human), UniProt Q92793); assay: AlphaScreen in-vitro binding assay for CREBBP; conditions: biochemical
In short: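 Ni-chelate acceptor and streptavidin donor beads (45 µg/mL each, in 50 mM HEPES pH 7.5, 150 mM NaCl, 0.02% BSA) were then added for 60 min at room temperature. IC50 came from 8-point non-linear regression.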

[4] = test system: K-562 cells; assay: Cell growth inhibition assay (CellTiter-Glo), K-562; format: cell-based, human; conditions: Homo sapiens, K562, read-out: K-562 TGI
In short: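 Compounds tested as 3-fold dilution series starting at 10 μM (DMSO 0.1% final); viability read by cellular ATP (CTG luminescence) at 37° C. Signal corrected for no-cell background and a day-0 plate, scaled −100% to 100%; four-parameter fitting gives IC50 and TGI.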

[5] = biological target: His-Brd3(20-477) (Homo sapiens (Human), UniProt Q15059); assay: TR-FRET in-vitro binding assay for BRD3; conditions: biochemical
In short: as §1

His-Brd3(20-477), sequence (Q15059 20-477): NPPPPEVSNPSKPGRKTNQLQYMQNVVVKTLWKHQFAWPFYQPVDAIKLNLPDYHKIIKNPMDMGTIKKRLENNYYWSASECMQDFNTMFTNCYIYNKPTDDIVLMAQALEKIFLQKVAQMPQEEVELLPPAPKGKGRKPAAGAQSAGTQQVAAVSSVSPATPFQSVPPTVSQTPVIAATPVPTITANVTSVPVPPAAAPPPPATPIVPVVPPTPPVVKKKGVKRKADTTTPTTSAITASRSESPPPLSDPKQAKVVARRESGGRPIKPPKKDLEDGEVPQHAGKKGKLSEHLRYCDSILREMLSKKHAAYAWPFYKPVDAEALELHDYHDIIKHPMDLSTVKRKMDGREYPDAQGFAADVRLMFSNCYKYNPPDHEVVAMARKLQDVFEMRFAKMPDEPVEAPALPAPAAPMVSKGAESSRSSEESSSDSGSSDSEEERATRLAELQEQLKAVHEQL
His-Brd2(60-472), sequence (P25440 60-472): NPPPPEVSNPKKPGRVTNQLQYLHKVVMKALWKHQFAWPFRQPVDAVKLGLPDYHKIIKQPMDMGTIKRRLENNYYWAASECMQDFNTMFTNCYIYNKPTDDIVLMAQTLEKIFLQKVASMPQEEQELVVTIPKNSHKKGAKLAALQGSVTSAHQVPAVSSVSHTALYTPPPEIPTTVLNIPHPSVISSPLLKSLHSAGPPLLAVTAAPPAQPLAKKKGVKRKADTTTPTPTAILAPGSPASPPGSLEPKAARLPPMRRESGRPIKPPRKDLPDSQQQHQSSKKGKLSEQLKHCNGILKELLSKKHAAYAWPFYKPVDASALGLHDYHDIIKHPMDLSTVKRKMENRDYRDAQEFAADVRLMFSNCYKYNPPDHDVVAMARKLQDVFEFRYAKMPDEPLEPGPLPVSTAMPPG
His-CREBBP (1081-1197) bromodomain, sequence (Q92793 1081-1197): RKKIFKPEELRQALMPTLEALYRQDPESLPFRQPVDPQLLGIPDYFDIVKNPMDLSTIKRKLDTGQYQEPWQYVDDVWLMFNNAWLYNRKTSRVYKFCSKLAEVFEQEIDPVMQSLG

Row | IC50 [1] [nM] | IC50 [2] [nM] | IC50 [3] [nM] | IC50 [5] [nM] | SMILES | IC (total growth inhibition) [4] [µM]
1 | 31 | 24 | 11000 | 29 | CCc1nn(C2CC2)c2c1C(c1ccc(Cl)cc1)N(c1cc(C)c3nnc(C)n3c1)C2=O (centres unmarked) [Example 70, 4-(4-chlorophenyl)-1-cyclopropyl-5-(3,8-dimethyl-[1,2,4]triazolo[4,3-a]pyridin-6-yl)-3-ethyl-4,5-dihydropyrrolo[3,4-c]pyrazol-6(1H)-one] | > 10
2 | – | 130 | 1900 | – | COc1c2c(nn1C)C(=O)N(c1cc(C)c(=O)n(C)c1)C2c1ccc(Cl)cc1 (centres unmarked) [Example 77, 4-(4-chlorophenyl)-5-(1,5-dimethyl-6-oxo-1,6-dihydropyridin-3-yl)-3-methoxy-2-methyl-4,5-dihydropyrrolo[3,4-c]pyrazol-6(2H)-one] | > 10
3 | – | 42 | 19000 | – | COCc1nn(C2CC2)c2c1C(c1ccc(Cl)cc1)N(c1cc(C)c3nnc(C)n3c1)C2=O (centres unmarked) [Example 130, 4-(4-chlorophenyl)-1-cyclopropyl-5-(3,8-dimethyl-[1,2,4]triazolo[4,3-a]pyridin-6-yl)-3-(methoxymethyl)-4,5-dihydropyrrolo[3,4-c]pyrazol-6(1H)-one] | > 10
4 | – | < 11 | > 37000 | – | Cc1nn(C2CC2)c2c1[C@@H](c1ccc(Cl)cc1)N(c1cc(C)c3nnc(C)n3n1)C2=O [Example 122, (R)-4-(4-chlorophenyl)-1-cyclopropyl-5-(3,8-dimethyl-[1,2,4]triazolo[4,3-b]-pyridazin-6-yl)-3-methyl-4,5-dihydropyrrolo[3,4-c]pyrazol-6(1H)-one] | > 10

More lines, now with the values behind:

Row | SMILES | IC50 [1] [nM] | IC50 [2] [nM] | IC50 [3] [nM] | IC50 [5] [nM] | IC (total growth inhibition) [4] [µM]
5 | CCc1nn(C2CC2)c2c1[C@@H](c1ccc(Cl)cc1)N(c1cc(C)c3nnc(C)n3c1)C2=O [Example 107, (R)-4-(4-chlorophenyl)-1-cyclopropyl-5-(3,8-dimethyl-[1,2,4]triazolo[4,3-a]pyridin-6-yl)-3-ethyl-4,5-dihydropyrrolo[3,4-c]pyrazol-6(1H)-one] | 14 | < 11 | 6900 | 13 | > 10
6 | CNC(=O)n1nc(C)c2c1C(=O)N(c1cc(C)c3nnc(C)n3c1)C2c1ccc(Cl)cc1 (centres unmarked) [Example 145, 4-(4-chlorophenyl)-5-(3,8-dimethyl-[1,2,4]triazolo[4,3-a]pyridin-6-yl)-N,3-dimethyl-6-oxo-5,6-dihydropyrrolo[3,4-c]pyrazole-1(4H)-carboxamide] | 180 | 140 | > 37000 | 190 | > 10
7 | Cc1nn(C2CC2)c2c1C(c1ccc(C(F)(F)F)cc1)N(c1cc(C)c(=O)n(C)c1)C2=O (centres unmarked) [Example 97, 1-cyclopropyl-5-(1,5-dimethyl-6-oxo-1,6-dihydropyridin-3-yl)-3-methyl-4-(4-(trifluoromethyl)phenyl)-4,5-dihydropyrrolo[3,4-c]pyrazol-6(1H)-one] | 88 | 89 | 3600 | 120 | > 10
8 | COc1ncc(-n2nc3c(c2C(C)C)C(c2ccc(Cl)cc2)N(c2ccc4onc(C)c4c2)C3=O)c(OC)n1 (centres unmarked) [Example 54, 4-(4-chlorophenyl)-2-(2,4-dimethoxypyrimidin-5-yl)-3-isopropyl-5-(3-methylbenzo-[d]isoxazol-5-yl)-4,5-dihydropyrrolo[3,4-c]pyrazol-6(2H)-one] | 480 | 260 | > 37000 | 300 | > 10
9 | CC(=O)Nc1cc(N2C(=O)c3c(c(C)nn3C3CC3)C2c2ccc(Cl)cc2)nn2c(C)nnc12 (centres unmarked) [Example 126, N-(6-(4-(4-chlorophenyl)-1-cyclopropyl-3-methyl-6-oxopyrrolo[3,4-c]pyrazol-5-(1H,4H,6H)-yl)-3-methyl-[1,2,4]triazolo[4,3-b]pyridazin-8-yl)acetamide] | – | 1100 | > 37000 | > 37000 | > 10
